From patent US10899758B2, “Inhibitors of the menin-MLL interaction” (Vitae Pharmaceuticals, LLC, priority 2016, dated 2021) come the findings set out here.

Experiment [1] has as its target T1, menin/MLL binding (biotinylated wild-type or mutated menin and MLL-AF9 fusion protein) (Homo sapiens, UniProt O00255).
T1 construct: biotinylated (1) wild-type menin or (2) mutated menin (described in Nature (2012) Vol. 482, pp. 542-548); fused on or other part: Biotin attached chemically (Sulfo-NHS-Biotin); no fused second protein is printed for menin
T1 sequence (O00255 1-459 limits assumed): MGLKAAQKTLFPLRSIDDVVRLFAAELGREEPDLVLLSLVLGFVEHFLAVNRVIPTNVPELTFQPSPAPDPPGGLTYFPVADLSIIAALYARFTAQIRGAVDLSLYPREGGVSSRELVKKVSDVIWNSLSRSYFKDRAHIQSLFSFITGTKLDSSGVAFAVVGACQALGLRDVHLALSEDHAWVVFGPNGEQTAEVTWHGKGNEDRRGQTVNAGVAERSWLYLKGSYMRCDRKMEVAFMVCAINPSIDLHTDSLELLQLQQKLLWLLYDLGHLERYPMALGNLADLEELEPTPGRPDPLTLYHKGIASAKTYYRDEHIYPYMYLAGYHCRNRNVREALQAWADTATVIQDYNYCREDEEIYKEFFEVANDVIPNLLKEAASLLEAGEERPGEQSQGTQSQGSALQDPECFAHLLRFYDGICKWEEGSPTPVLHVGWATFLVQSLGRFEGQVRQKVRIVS
The experiment is described as follows: Assay 1 (Binding Assay): AlphaLISA menin/MLL binding. As to conditions: 5 nM biotinylated menin, MLL-AF9-FLAG lysate. Put shortly: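 Biotinylated E. coli-expressed menin (wild-type or mutant), 5 nM, incubated 30 min RT with compound and HEK293 lysate of MLL1-1,396–AF9-FLAG in pH 7.4 Tris buffer, 5% DMSO, 1 mM DTT. Anti-FLAG acceptor and streptavidin donor beads added, 60 min RT, AlphaLISA signal read. IC50 from four-parameter fit of % inhibition.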

For experiment [2], the system named is human acute monocytic leukemia cell line MV-4-11. Nature of the experiment: Assay 2 (Cell Proliferation Assay), ATP quantitation (CellTiter-Glo). The class given is cell-based. As to conditions: MV-4-11 cells, read-out: Assay 2 (EC50, inhibition of cell proliferation). The procedure, abridged:
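Cells (1.67×10^4/well, 10% FBS medium) incubated ±compound 72 h at 37 °C, 5% CO2; HL-60 served as toxicity control. ATP read by CellTiter-Glo luminescence; % inhibition scaled between DMSO and a potent menin inhibitor at ≥100×LD50.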
For orientation: Cellular ATP, detected with luciferase, serves as a proxy for viable cell number.

Where two headings read alike, the source gives them in different places.

In experiment [1], `CNC(=O)c1cccc(CCN2CCC(c3cn(-c4ccc(F)cc4C(=O)N(C)C(C)C)c4cnccc34)CC2)c1` [Example 26, 5-fluoro-N-isopropyl-N-methyl-2-(3-(1-(3-(methylcarbamoyl)phenethyl)piperidin-4-yl)-1H-pyrrolo[2,3-c]pyridin-1-yl)benzamide] came in with an IC50 of under 100 nM. In addition, in experiment [2] (Homo sapiens, MV4-11, 72 h), the EC50 lay within 100 to 1000 nM.

`CC(C)N(C)C(=O)c1cc(F)ccc1-n1cc(C2CCNC(Cc3ccccc3)C2)c2ccncc21` (stereo not drawn) [Example 31, 2-(3-(2-benzylpiperidin-4-yl)-1H-pyrrolo[2,3-c]pyridin-1-yl)-5-fluoro-N-isopropyl-N-methylbenzamide]: the half-inhibitory concentration (IC50) in experiment [1] was under 100 nM. In experiment [2] (Homo sapiens, MV4-11, 72 h), the EC50 was under 100 nM.

Molecule `CC(C)N(C)C(=O)c1cc(F)ccc1-n1cc(C2CCC(N(C)C)CC2)c2ccncc21` (single isomer, unassigned) [Example 54, 2-(3-(4-(dimethylamino)cyclohexyl)-1H-pyrrolo[2,3-c]pyridin-1-yl)-5-fluoro-N-isopropyl-N-methylbenzamide] returned an IC50 in experiment [1] of under 100 nM. Moreover, the EC50 in experiment [2] (Homo sapiens, MV4-11, 72 h) is at least 1000 nM.

In turn, `Cc1nnc(C2CC2)n1-c1cc(F)ccc1-n1cc(C2CCCN(Cc3ccc4[nH]c(=O)[nH]c4c3)C2)c2ccncc21` (stereo not drawn) [Example 121, 5-((3-(1-(2-(3-cyclopropyl-5-methyl-4H-1,2,4-triazol-4-yl)-4-fluorophenyl)-1H-pyrrolo[2,3-c]pyridin-3-yl)piperidin-1-yl)methyl)-1H-benzo[d]imidazol-2(3H)-one] registered an IC50 in experiment [1] of under 100 nM. For the same molecule, in experiment [2] (Homo sapiens, MV4-11, 72 h), the EC50 was under 100 nM.

The molecule `CC(C)N(C)C(=O)c1cc(F)ccc1-n1cc(C2CCN(C[C@H]3CC[C@@H](O)CC3)CC2)c2ccncc21` [Example 27A, cis-(5-fluoro-2-(3-(1-((4-hydroxycyclohexyl)methyl)piperidin-4-yl)-1H-pyrrolo[2,3-c]pyridin-1-yl)-N-isopropyl-N-methylbenzamide)] had an IC50 in experiment [1] of under 100 nM. Further, in experiment [2] (Homo sapiens, MV4-11, 72 h), the EC50 is at least 1000 nM.

Take `CCN(C(=O)c1cc(F)ccc1-n1cc(C2CCCN(Cc3ccc4[nH]c(=O)[nH]c4c3)C2)c2ccncc21)C(C)C` (single isomer, unassigned) [Example 47B]: the concentration for half-maximal inhibition (IC50) in experiment [1] is under 100 nM. Moreover, the EC50 in experiment [2] (72 h) was under 100 nM.

`CC(C)N(C)C(=O)c1cc(F)ccc1-n1cc(C2CCCN(Cc3ccc4c(c3)[nH]c(=O)n4CCO)C2)c2ccncc21` (single isomer, unassigned) [Example 44B, 5-fluoro-2-(3-(1-((1-(2-hydroxyethyl)-2-oxo-2,3-dihydro-1H-benzo[d]imidazol-5-yl)methyl)piperidin-3-yl)-1H-pyrrolo[2,3-c]pyridin-1-yl)-N-isopropyl-N-methylbenzamide] gave an IC50 in experiment [1] of under 100 nM. For the same molecule, the EC50 in experiment [2] (Homo sapiens, MV4-11, 72 h) is under 100 nM.

The molecule `Cc1c(CN2CCC(c3cn(-c4ccc(F)cc4C(=O)N(C)C(C)C)c4cnccc34)CC2)ccc2[nH]c(C#N)cc12` [Example 2, 2-(3-(1-((2-cyano-4-methyl-1H-indol-5-yl)methyl)piperidin-4-yl)-1H-pyrrolo[2,3-c]pyridin-1-yl)-5-fluoro-N-isopropyl-N-methylbenzamide] came in with an IC50 in experiment [1] of under 100 nM. For the same molecule, in experiment [2] (Homo sapiens, MV4-11, 72 h), the EC50 is under 100 nM.

`CC(C)N(C)C(=O)c1cc(F)ccc1-n1cc([C@H]2CC[C@H](N3CCCC3)CC2)c2ccncc21` [Example 55, 5-fluoro-N-isopropyl-N-methyl-2-(3-(trans-4-(pyrrolidin-1-yl)cyclohexyl)-1H-pyrrolo[2,3-c]pyridin-1-yl)benzamide]: the half-maximal inhibitory concentration (IC50) in experiment [1] was under 100 nM. In experiment [2] (Homo sapiens, MV4-11, 72 h), the EC50 was in the range of 100 to 1000 nM.

Turning to `CC(C)N(C)C(=O)c1cc(F)ccc1-n1cc([C@H]2CC[C@H](N3CCC[C@@H]3CO)CC2)c2ccncc21` [Example 100, 5-fluoro-2-(3-(trans-4-((R)-2-(hydroxymethyl)pyrrolidin-1-yl)cyclohexyl)-1H-pyrrolo[2,3-c]pyridin-1-yl)-N-isopropyl-N-methylbenzamide], the IC50 in experiment [1] is under 100 nM. For the same molecule, in experiment [2] (Homo sapiens, MV4-11, 72 h), the EC50 lay within 100 to 1000 nM.

On to `CC(C)N(C)C(=O)c1cc(F)ccc1-n1cc(C2CCN(CCC3CCN(S(C)(=O)=O)CC3)CC2)c2ccncc21` [Example 28, 5-fluoro-N-isopropyl-N-methyl-2-(3-(1-(2-(1-(methylsulfonyl)piperidin-4-yl)ethyl)piperidin-4-yl)-1H-pyrrolo[2,3-c]pyridin-1-yl)benzamide], for which, in experiment [1], the IC50 was under 100 nM. In addition, the EC50 in experiment [2] (Homo sapiens, MV4-11, 72 h) lay in the range of 100 to 1000 nM.

As to `CC(C)N(C)C(=O)c1cc(F)ccc1-n1cc(C2CCCN(Cc3ccc4[nH]c(=O)[nH]c4c3)C2)c2ccncc21` (single isomer, unassigned) [Example 43A, 5-fluoro-N-isopropyl-N-methyl-2-(3-(1-((2-oxo-2,3-dihydro-1H-benzo[d]imidazol-5-yl)methyl)piperidin-3-yl)-1H-pyrrolo[2,3-c]pyridin-1-yl)benzamide], the IC50 in experiment [1] is under 100 nM. The EC50 in experiment [2] (Homo sapiens, MV4-11, 72 h) was under 100 nM.

In experiment [1], `CC(C)N(C)C(=O)c1cc(F)ccc1-n1cc(C2CCC(NCC3CCC(NS(C)(=O)=O)CC3)CC2)c2ccncc21` (single isomer, unassigned) [Example 61, 5-fluoro-N-isopropyl-N-methyl-2-(3-(4-(((4-(methylsulfonamido)cyclohexyl)methyl)amino)cyclohexyl)-1H-pyrrolo[2,3-c]pyridin-1-yl)benzamide] gave a 50% inhibitory concentration (IC50) of under 100 nM. Moreover, the EC50 in experiment [2] (72 h) lay in the range of 100 to 1000 nM.

In turn, `CC(C)N(C(=O)c1cc(F)ccc1-n1cc(C2CN(C[C@H]3CC[C@H](NS(C)(=O)=O)CC3)C2)c2ccncc21)C(C)C` [Example 138, 5-fluoro-N,N-diisopropyl-2-(3-(1-(((1r,4r)-4-(methylsulfonamido)cyclohexyl)methyl)azetidin-3-yl)-1H-pyrrolo[2,3-c]pyridin-1-yl)benzamide] displayed a 50% inhibitory concentration (IC50) in experiment [1] of under 100 nM. Also, in experiment [2] (Homo sapiens, MV4-11, 72 h), the EC50 lay in the range of 100 to 1000 nM.

Consider `CC(c1ccccc1)N1CCC(c2cn(-c3ccc(F)cc3C(=O)N(C)C(C)C)c3cnccc23)CC1` (stereo not drawn) [Example 30, 5-fluoro-N-isopropyl-N-methyl-2-(3-(1-(1-phenylethyl)piperidin-4-yl)-1H-pyrrolo[2,3-c]pyridin-1-yl)benzamide], for which, in experiment [1], the half-maximal inhibitory concentration (IC50) was under 100 nM. The EC50 in experiment [2] (Homo sapiens, MV4-11, 72 h) lay within 100 to 1000 nM.

Molecule `CC(C)N(C)C(=O)c1cc(F)ccc1-n1cc(C2CCN(CCc3ccc(S(C)(=O)=O)cc3)CC2)c2ccncc21` [Example 24, 5-fluoro-N-isopropyl-N-methyl-2-(3-(1-(4-(methylsulfonyl)phenethyl)piperidin-4-yl)-1H-pyrrolo[2,3-c]pyridin-1-yl)benzamide] yielded a 50% inhibitory concentration (IC50) in experiment [1] of under 100 nM. For the same molecule, the EC50 in experiment [2] (Homo sapiens, MV4-11, 72 h) is 100 to 1000 nM.

As for `CC(C)N(C)C(=O)c1cc(F)ccc1-n1cc(C2CCN(CC[C@H]3CC[C@H](NC(=O)OC(C)(C)C)CC3)CC2)c2ccncc21` [Example 18A, tert-butyl (trans-4-(2-(4-(1-(4-fluoro-2-(isopropyl(methyl)carbamoyl)phenyl)-1H-pyrrolo[2,3-c]pyridin-3-yl)piperidin-1-yl)ethyl)cyclohexyl)carbamate], the IC50 in experiment [1] was under 100 nM. Besides, in experiment [2] (Homo sapiens, MV4-11, 72 h), the EC50 lay within 100 to 1000 nM.

For the molecule `CC(C)N(C)C(=O)c1cc(F)ccc1-n1cc(C2CCCN(CC3CCCCC3)C2)c2ccncc21` (stereo not drawn) [Example 46, 2-(3-(1-(cyclohexylmethyl)piperidin-3-yl)-1H-pyrrolo[2,3-c]pyridin-1-yl)-5-fluoro-N-isopropyl-N-methylbenzamide], the concentration for half-maximal inhibition (IC50) in experiment [1] is under 100 nM. Also, the EC50 in experiment [2] (Homo sapiens, MV4-11, 72 h) was in the range of 100 to 1000 nM.

In turn, `CC(C)N(C)C(=O)c1cc(F)ccc1-n1cc(C2CCN(CC3CC(F)(F)C3)CC2)c2ccncc21` [Example 16, 2-(3-(1-((3,3-difluorocyclobutyl)methyl)piperidin-4-yl)-1H-pyrrolo[2,3-c]pyridin-1-l)-5-fluoro-N-isopropyl-N-methylbenzamide] displayed an IC50 in experiment [1] of under 100 nM. In experiment [2] (Homo sapiens, MV4-11, 72 h), the EC50 was 100 to 1000 nM.

In experiment [1], `CC(C)N(C)C(=O)c1cc(F)ccc1-n1cc(C2CCCN(Cc3ccc4[nH]c(=O)[nH]c4c3)C2)c2ccncc21` (stereo not drawn) [Example 43, 5-fluoro-N-isopropyl-N-methyl-2-(3-(1-((2-oxo-2,3-dihydro-1H-benzo[d]imidazol-5-yl)methyl)piperidin-3-yl)-1H-pyrrolo[2,3-c]pyridin-1-yl)benzamide] yielded a half-maximal inhibitory concentration (IC50) of under 100 nM. The EC50 in experiment [2] (Homo sapiens, MV4-11, 72 h) was under 100 nM.

`CC(C)N(C)C(=O)c1cc(F)ccc1-n1cc(C2CCC(N(C)C)CC2)c2ccncc21` (single isomer, unassigned) [Example 54A, 2-(3-(4-(dimethylamino)cyclohexyl)-1H-pyrrolo[2,3-c]pyridin-1-yl)-5-fluoro-N-isopropyl-N-methylbenzamide] returned an IC50 in experiment [1] of 100 to 1000 nM. In addition, the EC50 in experiment [2] (72 h) is at least 1000 nM.

Usually IC50 stands for the concentration that inhibits the measured activity by half. Higher therefore signals lower potency.
